Like-named read-outs stand apart in the source and are kept apart here.
Assays:
[1] = tested on: nematodes; test: Lifespan extension in model organism (nematode), survival analysis (Test Examples 8 and 10); type: in vivo; conditions: for average lifespan extended compared to the control: 1% DMSO
Description: The ATP prodrug prepared in Example 1, dissolved in DMSO, was added to the liquid Nematode Growth Medium (NGM) that had been sterilized and maintained at 60° C. at a final concentration of 100 μM, so as to prepare an ATP prodrug-containing NGM plate. At this time, the final concentration of DMSO in the NGM was adjusted to 1%. […] Onto the surface of the NGM plate used immediately before survival analysis, the bacterium Escherichia coli strain OP50 stirred in M9 buffer was applied as food for the nematodes.
Thirty-five nematodes were transferred to the NGM plate, after performing age synchronization. The nematodes were transferred to a new NGM plate every day from the first day of adulthood (the third day) to the seventh day, and every two days from the eighth day until the nematodes died. At the same time, the numbers of living nematodes and dead nematodes were recorded. Survival status of the nematodes was determined by whether they reacted when touched. Average lifespan was calculated from the results obtained, and the average lifespans were compared to determine the lifespan extension rate of the nematodes. This experiment was conducted four times to confirm the reproducibility (In cases of both with and without the addition of proATP, n=114).
ATP prodrug-neo dissolved in DMSO, was added to the liquid Nematode Growth Medium (NGM) that had been sterilized and maintained at 60° C. at a final concentration of 200 µM, so as to prepare an ATP prodrug-neo-containing NGM plate. At this time, the final concentration of DMSO in the NGM was adjusted to 1%. […]
Thirty-five nematodes were transferred to the NGM plate, after performing age synchronization. […] At the same time, the numbers of living nematodes and dead nematodes were recorded. Survival status of the nematode was determined by whether they reacted when touched. Average lifespan was calculated from the results obtained, and the average lifespans were compared to determine the lifespan extension rate of the nematodes. […]

[2] = tested on: Human Dermal Fibroblasts (HDF) derived from human; test: Intracellular ATP level in young and aged human dermal fibroblasts (Test Example 4 A); type: cell-based; conditions: 50 μM, 24 hours
Description: (§1) Human Dermal Fibroblasts (HDF) derived from human (Toyobo) were seeded at 5000 cells/well in DMEM low glucose, 10% FBS, and 1% penicillin/streptomycin, and three hours later, the ATP prodrug dissolved in DMSO was added at either 0 or 50 μM. (A) The sample was incubated for 24 hours. The amount of DNA was measured using picogreen, and converted to cell count from a calibration curve separately created. The ATP level was quantified using the ATP measurement kit (Dojin Chemical), and the ATP level per cell was calculated. (B) 75 μM of the ATP prodrug was added to the HDF derived from human, and the medium was replaced with serum-free medium comprising 200 μM of hydrogen peroxide after 24 hours, followed by incubating the mixture for 6 hours. After 6 hours, the cells were washed, and the cell numbers were compared using the WST-8 kit.

[3] = tested on: Human liver cancer cells (HepG2); test: Intracellular ATP level in liver cancer cells (Test Example 6); type: cell-based; conditions: HepG2 (cultured cells), varying concentrations, 24 hours
Description: Human liver cancer cells (HepG2) were seeded at 5000 cells per well in DMEM with 10% FBS and 1% penicillin/streptomycin, and after 3 hours, a solution of the ATP prodrug prepared in Example 1 in DMSO at varying concentrations was added to the wells. After 24 hours, the amount of DNA was measured using picogreen, and converted to cell count based on a calibration curve separately created. The ATP level was quantified using the ATP measurement kit (Dojin Chemical), resulting in the ATP level per cell.

[4] = tested on: MCF7 cells; test: Effect of ATP analogs on intracellular ATP concentration in MCF7 cells (Test Example 2); type: cell-based, human; conditions: MCF7, 100 μM, one day and two days, normalized to DNA, compared with adenosine, AMP
Description: Adenosine, AMP, ATP, and the ATP prodrug were added to the culture medium of MCF7 cells (5000 cells/well) at a concentration of 100 μM, and, one day and two days later, ATP was measured, followed by normalizing the results to the DNA amounts.

[5] = tested on: normal pig liver cells; test: Intracellular ATP level in primary liver cells (Test Example 6); type: cell-based; conditions: varying concentrations, 24 hours
Description: In addition to this study, normal pig liver cells were seeded at 5000 cells per well in the liver cell differentiation environment (Hepatp-STIM, 1 μg/100 mL EGF, 1% penicillin/streptomycin), and after 3 hours, a solution of the ATP prodrug in DMSO at varying concentrations was added to the wells. The DNA amount was measured using picogreen 24 hours later. The ATP level was quantified using the ATP measurement kit (Dojin Chemical), and the ATP level was provided.

[6] = tested on: Human fibroblasts (NHDF); test: Effect on intracellular ATP concentration using normal cells (Test Example 3); type: cell-based; conditions: 200 μM ATP prodrug, one day, ATP per cell
Description: Human fibroblasts (NHDF) (Takara Bio) were seeded at 5000 cells per well in DMEM low glucose, 10% FBS, and 1% penicillin/streptomycin, and, after 3 hours, a solution of the ATP prodrug prepared in Example 1 in DMSO at varying concentrations was added to the wells. One day later, the amount of DNA was measured using picogreen, and converted to cell count from a calibration curve separately created. The ATP level was quantified using the ATP measurement kit (Dojin Chemical), and the ATP level per cell was calculated.

[7] = tested on: MCF7 (human breast cancer cells); test: Effect of ATP prodrug on intracellular ATP concentration in MCF7 cells (Test Example 1); type: cell-based; conditions: MCF7, 100 μM ATP prodrug, after 3 days, ATP per cell
Description: MCF7 (human breast cancer cells) (RIKEN BRC) were seeded at 5000 cells per well in DMEM low glucose, 10% FBS, and 1% penicillin/streptomycin, and, after 3 hours, solutions of the ATP prodrug prepared in Example 1 in DMSO at varying concentrations were added to those wells. Three days later, the amounts of DNA were measured using picogreen, and converted to cell counts from a calibration curve separately created. The amount of ATP was quantified using the ATP measurement kit (Dojin Chemical), and the amount of ATP per cell was calculated.

[8] = tested on: NHDF (normal human dermal fibroblasts); test: Cytotoxicity by LDH release (Test Example 5); type: cell-based; conditions: 24 hours
Description: NHDF (normal human dermal fibroblasts) were seeded at 5000 cells per well in DMEM/F12 with 10% FBS and 1% penicillin/streptomycin, and after 3 hours, a solution of the ATP prodrug prepared in Example 1 in DMSO at varying concentrations was added to the wells. After 24 hours, the release of the cytotoxicity marker, lactate dehydrogenase (LDH), was quantified using the LDH assay kit (Dojin Chemical), and the cytotoxicity was calculated.

[9] = tested on: HDF derived from human; test: Oxidative stress load (hydrogen peroxide) on aged cells, cell number by WST-8 (Test Example 4 B); type: cell-based; conditions: HDF from person, 75 μM ATP prodrug 24 hours, then 200 μM hydrogen peroxide 6 hours
Description: as §1

[10] = tested on: nematodes; test: ATP level in model organism (nematode); type: in vivo; conditions: nematodes on NGM plate with 100 μM ATP prodrug, seventh day of cultivation
Description: The culture of the nematodes and the addition of the ATP prodrug to the nematodes were conducted under the same conditions as those in the survival analysis. On the seventh day of cultivation, five nematodes were collected for each condition, totaling twenty-five nematodes, and were transferred to a 24-well plate containing PBS, followed by conducting ultrasonic disruption while kept on ice for one minute. Then, the crushed liquid was collected into a microtube, and after centrifugation (15,000 rpm, 30 minutes, 4° C.), the supernatant was collected. Amount of the ATP in the supernatant was quantified using the ATP measurement kit (Dojin Chemical), and the amount of the ATP per nematode was calculated.

[11] = tested on: AMP-activated protein kinase (AMPK); test: Intracellular ATP levels using AMPK inhibitor (Test Example 7); conditions: normal human dermal fibroblasts, ATP prodrug 100 μM, 24 hours
[12] = tested on: HDF75 (human dermal fibroblasts derived from a person); test: Effect of ATP prodrug-neo on intracellular ATP concentration (Test Example 9); type: cell-based; conditions: HDF75, varying concentrations, 24 hours, ATP per cell
Description: HDF75 (human dermal fibroblasts derived from a person) (Cell Applications, Inc.) were seeded at 5000 cells per well in the human dermal fibroblast growth medium, and after 3 hours, a solution of the ATP prodrug-neo prepared in Example 2 in DMSO at varying concentrations was added to the well. After 24 hours, the amount of DNA was measured using the picogreen and converted to cell count from a calibration curve separately created. The amount of ATP was quantified using the ATP measurement kit (Dojin Chemical), and the amount of ATP per cell was calculated.

[13] = cited from earlier work
[14] = tested on: nematodes; conditions: nematode, literature values of other drugs; cited from earlier work

CCC(CC)COC(=O)[C@H](C)N[P@](=O)(OC[C@H]1O[C@@H](n2cnc3c(N)ncnc32)[C@H](O)[C@@H]1O)Oc1ccccc1 [ATP prodrug, (S)-2-Ethylbutyl 2-(((S)-(((2R,3S,4R,5R)-5-(6-amino-9H-purine-9-yl)-3,4-dihydroxy-tetrahydrofuran-2-yl)methoxy) (phenoxy)phosphoryl)amino)propanoate]
Lifespan Extension Rate ([1]; nematode, the present invention): 133% | average lifespan extended compared to the control ([1]; nematodes on NGM plate with 100 μM ATP prodrug): approximately 33% | intracellular ATP levels [2]: increased | intracellular ATP levels [3]: increased | intracellular ATP level [4]: increased | intracellular ATP levels [5]: increased | intracellular ATP level compared to the control (0 μM) [6]: 1.7 times | intracellular ATP amount compared to the control level [7]: approximately 2.5 times | amount of LDH release ([8]; 256 μM): remains low | cytotoxicity to cells ([8]; LDH assay): low cytotoxicity | cell number under oxidative stress [9]: suppresses the decrease in cell number | amount of ATP per nematode higher than control [10]: approximately 23% | AMPK activation (suggested from inhibitor experiment) [11]: activates the AMPK

C[C@H](NP(=O)(N[C@@H](C)C(=O)OCC(C)(C)C)OC[C@H]1O[C@@H](n2cnc3c(N)ncnc32)C(O)C1O)C(=O)OCC(C)(C)C (stereo partly shown) [ATP prodrug-neo]
average lifespan extended compared to the control ([1]; nematodes on NGM plate with 200 µM ATP prodrug-neo): approximately 26% | intracellular ATP levels [12]: increased

Nc1ncnc2c1ncn2[C@@H]1O[C@H](COP(=O)(O)OP(=O)(O)OP(=O)(O)O)[C@@H](O)[C@H]1O [ATP, adenosine triphosphate]
half-life in blood [13]: about 10 seconds

CN(C)C(=N)N=C(N)N [Metformin]
Lifespan Extension Rate [14]: 127%

NC(=O)c1cccnc1 [Nicotinamide]
Lifespan Extension Rate [14]: 116%

Oc1ccc(C=Cc2cc(O)cc(O)c2)cc1 [Resveratrol]
Lifespan Extension Rate [14]: 110%

Reference: patent US20260115216A1, “NUCLEIC ACID PRECURSOR” (priority 2022, published 2026)
